{"source": "patent US10435369B2", "about": "“Tricyclic sulfones as ROR gamma modulators” (BRISTOL-MYERS SQUIBB COMPANY, priority 2016, dated 2019)", "data": [{"target": "RORγ receptor (Homo sapiens, UniProt P51449)", "sequence (P51449 269-508)": "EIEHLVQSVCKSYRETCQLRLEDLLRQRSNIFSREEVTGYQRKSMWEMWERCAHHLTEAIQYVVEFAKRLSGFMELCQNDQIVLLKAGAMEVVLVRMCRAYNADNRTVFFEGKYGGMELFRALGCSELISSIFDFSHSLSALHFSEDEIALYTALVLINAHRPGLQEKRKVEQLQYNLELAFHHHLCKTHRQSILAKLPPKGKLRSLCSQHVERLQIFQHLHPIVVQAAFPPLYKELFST", "experiment": "RORγ Gal4 reporter assay (Gal4-luciferase, inverse agonist activity)", "format": "cell-based", "details": "not given", "procedure": "(§1) General RORγ Gal4 Reporter Assay\n(§2) IC50 values were determined.", "units": {"IC50": "nM"}, "values": [{"compound": "CNC(=O)CN[C@@H]1CC[C@@]2(S(=O)(=O)c3ccc(F)cc3)c3ccc(C(F)(C(F)(F)F)C(F)(F)F)cc3CC[C@@H]12", "note": "[Example 208, 2-(((3R,3 aS,9bS)-9b-((4-fluorophenyl)sulfonyl)-7-(perfluoropropan-2-yl)-2,3,3a,4,5,9b-hexahydro-1H-cyclopenta[a]naphthalen-3-yl)amino)-N-methylacetamide]", "IC50": 16}, {"compound": "[2H]C([2H])([2H])C(=O)N1CC(O)(CC(=O)N[C@@H]2CC[C@@]3(S(=O)(=O)c4ccc(F)cc4)c4ccc(C(F)(C(F)(F)F)C(F)(F)F)cc4CC[C@@H]23)C1", "note": "[Example 231, 2-(1-(acetyl-d3)-3-hydroxyazetidin-3-yl)-N-((3R,3aS,9bS)-9b-((4-fluorophenyl)sulfonyl)-7-(perfluoropropan-2-yl)-2,3,3a,4,5,9b-hexahydro-1H-cyclopenta[a]naphthalen-3-yl)acetamide]", "IC50": 65}]}, {"target": "RORγ receptor (Homo sapiens, UniProt P51449)", "experiment": "RORγ Gal4 reporter assay (Gal4-luciferase, inverse agonist activity)", "format": "cell-based", "details": "Jurkat cells stably over-expressing hRORγ; Gal4-luciferase reporter; overnight incubation; read-out: RORγ Gal4, IC50", "procedure": "as §1, §2", "units": {"IC50": "nM"}, "values": [{"compound": "Cn1cc(C(=O)N[C@@H]2CC[C@@]3(S(=O)(=O)c4ccc(F)cc4)c4ccc(C(F)(C(F)(F)F)C(F)(F)F)cc4CC[C@@H]23)ccc1=O", "note": "[Example 189]", "IC50": 9}, {"compound": "O=C(O)[C@H]1CC[C@](O)(C(=O)N[C@@H]2CC[C@@]3(S(=O)(=O)c4ccc(F)cc4)c4ccc(C(F)(C(F)(F)F)C(F)(F)F)cc4CC[C@@H]23)CC1", "note": "[Example 191, (1s,4s)-4-(((3R,3aS,9bS)-9b-((4-fluorophenyl)sulfonyl)-7-(perfluoropropan-2-yl)-2,3,3a,4,5,9b-hexahydro-1H-cyclopenta[a]naphthalen-3-yl)carbamoyl)-4-hydroxycyclohexane-1-carboxylic acid]", "IC50": 54}, {"compound": "O=C(O)[C@H]1CC[C@](F)(C(=O)N[C@@H]2CC[C@@]3(S(=O)(=O)c4ccc(F)cc4)c4ccc(C(F)(C(F)(F)F)C(F)(F)F)cc4CC[C@@H]23)CC1", "note": "[Example 192]", "IC50": 24}, {"compound": "O=C(O)C12C3C4C1C1C2C3C41C(=O)N[C@@H]1CC[C@@]2(S(=O)(=O)c3ccc(F)cc3)c3ccc(C(F)(C(F)(F)F)C(F)(F)F)cc3CC[C@@H]12", "note": "(stereo partly shown) [Example 193]", "IC50": 97}, {"compound": "C[C@H]1C[C@H](C(=O)O)CC[C@H]1C(=O)N[C@@H]1CC[C@@]2(S(=O)(=O)c3ccc(F)cc3)c3ccc(C(F)(C(F)(F)F)C(F)(F)F)cc3CC[C@@H]12", "note": "[Example 194]", "IC50": 32}, {"compound": "CC(C)(N)C(=O)N[C@@H]1CC[C@@]2(S(=O)(=O)c3ccc(F)cc3)c3ccc(C(F)(C(F)(F)F)C(F)(F)F)cc3CC[C@@H]12", "note": "[Example 197]", "IC50": 30}, {"compound": "CC(C)(N)[C@H](N)C(=O)N[C@@H]1CC[C@@]2(S(=O)(=O)c3ccc(F)cc3)c3ccc(C(F)(C(F)(F)F)C(F)(F)F)cc3CC[C@@H]12", "note": "[Example 198]", "IC50": 17}, {"compound": "CC(C)(C(=O)N[C@@H]1CC[C@@]2(S(=O)(=O)c3ccc(F)cc3)c3ccc(C(F)(C(F)(F)F)C(F)(F)F)cc3CC[C@@H]12)N1CCNCC1", "note": "[Example 200]", "IC50": 63}, {"compound": "CS(=O)(=O)N[C@@H]1CC[C@@]2(S(=O)(=O)c3ccc(F)cc3)c3ccc(C(F)(C(F)(F)F)C(F)(F)F)cc3CC[C@@H]12", "note": "[Example 201, N-((3R,3aS,9bS)-9b-((4-fluorophenyl)sulfonyl)-7-(perfluoropropan-2-yl)-2,3,3a,4,5,9b-hexahydro-1H-cyclopenta[a]naphthalen-3-yl)methanesulfonamide]", "IC50": 7}, {"compound": "CC1(O)CN(C(=O)N[C@@H]2CC[C@@]3(S(=O)(=O)c4ccc(F)cc4)c4ccc(C(F)(C(F)(F)F)C(F)(F)F)cc4CC[C@@H]23)C1", "note": "[Example 204]", "IC50": 9}, {"compound": "CNC(=O)CN(CC(=O)NC)[C@@H]1CC[C@@]2(S(=O)(=O)c3ccc(F)cc3)c3ccc(C(F)(C(F)(F)F)C(F)(F)F)cc3CC[C@@H]12", "note": "[Example 209, 2,2′-(((3R,3aS,9bS)-9b-((4-fluorophenyl)sulfonyl)-7-(perfluoropropan-2-yl)-2,3,3a,4,5,9b-hexahydro-1H-cyclopenta[a]naphthalen-3-yl)azanediyl)bis(N-methylacetamide)]", "IC50": 166}, {"compound": "CN(C)[C@@H]1CC[C@@]2(S(=O)(=O)c3ccc(F)cc3)c3ccc(C(F)(C(F)(F)F)C(F)(F)F)cc3CC[C@@H]12", "note": "[Example 212]", "IC50": 160}, {"compound": "CC(C)(O)CC(=O)N[C@@H]1CC[C@@]2(S(=O)(=O)c3ccc(F)cc3)c3ccc(C(F)(C(F)(F)F)C(F)(F)F)cc3NC[C@@H]12", "note": "[Example 221]", "IC50": 45}, {"compound": "CC(C)(O)CN1C(=O)CCN1C(=O)N[C@@H]1CC[C@@]2(S(=O)(=O)c3ccc(F)cc3)c3ccc(C(F)(C(F)(F)F)C(F)(F)F)cc3CC[C@@H]12", "note": "[Example 229, N-((3R,3aS,9bS)-9b-((4-fluorophenyl)sulfonyl)-7-(perfluoropropan-2-yl)-2,3,3a,4,59b-hexahydro-1H-cyclopenta[a]naphthalen-3-yl)-2-(2-hydroxy-2-methylpropyl)-3-oxopyrazolidin-1-carboxamide]", "IC50": 5}, {"compound": "O=C1OCCN1[C@@H]1CC[C@@]2(S(=O)(=O)c3ccc(F)cc3)c3ccc(C(F)(C(F)(F)F)C(F)(F)F)cc3CC[C@@H]12", "note": "[Example 240, 3-((3R,3aS,9bS)-9b-((4-fluorophenyl)sulfonyl)-7-(perfluoropropan-2-yl)-2,3,3a,4,5,9b-hexahydro-1H-cyclopenta[a]naphthalen-3-yl)oxazolidin-2-one]", "IC50": 9}, {"compound": "O=C(CO)N1CCC(O)(C(=O)N[C@@H]2CC[C@@]3(S(=O)(=O)c4ccc(F)cc4)c4ccc(C(F)(C(F)(F)F)C(F)(F)F)cc4CC[C@@H]23)CC1", "note": "[Example 256]", "IC50": 4}, {"compound": "CC(NC(=O)c1c[nH]cn1)[C@@H]1CC[C@@]2(S(=O)(=O)c3ccc(F)cc3)c3ccc(C(F)(C(F)(F)F)C(F)(F)F)cc3CC[C@@H]12", "note": "(stereo partly shown) [Example 257]", "IC50": 27}, {"compound": "CC(NC(=O)c1ccncn1)[C@@H]1CC[C@@]2(S(=O)(=O)c3ccc(F)cc3)c3ccc(C(F)(C(F)(F)F)C(F)(F)F)cc3CC[C@@H]12", "note": "(stereo partly shown) [Example 261]", "IC50": 34}, {"compound": "CC(NC(=O)c1ccncn1)[C@@H]1CC[C@@]2(S(=O)(=O)c3ccc(F)cc3)c3ccc(C(F)(C(F)(F)F)C(F)(F)F)cc3CC[C@@H]12", "note": "(stereo partly shown) [Example 262]", "IC50": 87}, {"compound": "CC(NC(=O)c1ccncc1)[C@@H]1CC[C@@]2(S(=O)(=O)c3ccc(F)cc3)c3ccc(C(F)(C(F)(F)F)C(F)(F)F)cc3CC[C@@H]12", "note": "(stereo partly shown) [Example 263]", "IC50": 22}, {"compound": "CC(NC(=O)c1ccncc1)[C@@H]1CC[C@@]2(S(=O)(=O)c3ccc(F)cc3)c3ccc(C(F)(C(F)(F)F)C(F)(F)F)cc3CC[C@@H]12", "note": "(stereo partly shown) [Example 264]", "IC50": 82}, {"compound": "CC(NC(=O)[C@@H]1C[C@@H](F)C(=O)N1)[C@@H]1CC[C@@]2(S(=O)(=O)c3ccc(F)cc3)c3ccc(C(F)(C(F)(F)F)C(F)(F)F)cc3CC[C@@H]12", "note": "(stereo partly shown) [Example 267]", "IC50": 15}, {"compound": "CC(NC(=O)[C@@H]1C[C@@H](F)C(=O)N1)[C@@H]1CC[C@@]2(S(=O)(=O)c3ccc(F)cc3)c3ccc(C(F)(C(F)(F)F)C(F)(F)F)cc3CC[C@@H]12", "note": "(stereo partly shown) [Example 268]", "IC50": 21}, {"compound": "CC(NC(=O)[C@H](C)N)[C@@H]1CC[C@@]2(S(=O)(=O)c3ccc(F)cc3)c3ccc(C(F)(C(F)(F)F)C(F)(F)F)cc3CC[C@@H]12", "note": "(stereo partly shown) [Example 271]", "IC50": 45}, {"compound": "CC(NS(=O)(=O)c1cnn(C)c1)[C@@H]1CC[C@@]2(S(=O)(=O)c3ccc(F)cc3)c3ccc(C(F)(C(F)(F)F)C(F)(F)F)cc3CC[C@@H]12", "note": "(stereo partly drawn) [Example 272, N-(1-((3R,3aS,9bS)-9b-((4-fluorophenyl)sulfonyl)-7-(perfluoropropan-2-yl)-2,3,3a,4,5,9b-hexahydro-1H-cyclopenta[a]naphthalen-3-yl)ethyl)-1-methyl-1H-pyrazole-4-sulfonamide]", "IC50": 27}, {"compound": "CC(NS(=O)(=O)c1cnn(C)c1)[C@@H]1CC[C@@]2(S(=O)(=O)c3ccc(F)cc3)c3ccc(C(F)(C(F)(F)F)C(F)(F)F)cc3CC[C@@H]12", "note": "(stereo partly shown) [Example 273]", "IC50": 26}, {"compound": "CC(NS(=O)(=O)c1nc[nH]n1)[C@@H]1CC[C@@]2(S(=O)(=O)c3ccc(F)cc3)c3ccc(C(F)(C(F)(F)F)C(F)(F)F)cc3CC[C@@H]12", "note": "(stereo partly shown) [Example 274]", "IC50": 62}, {"compound": "CC(NS(=O)(=O)c1nc[nH]n1)[C@@H]1CC[C@@]2(S(=O)(=O)c3ccc(F)cc3)c3ccc(C(F)(C(F)(F)F)C(F)(F)F)cc3CC[C@@H]12", "note": "(stereo partly shown) [Example 275]", "IC50": 65}, {"compound": "CS(=O)(=O)N[C@H]1C[C@H](NC(=O)[C@@H]2CC[C@@]3(S(=O)(=O)c4ccc(F)cc4)c4ccc(C(F)(C(F)(F)F)C(F)(F)F)cc4CC[C@@H]23)C1", "note": "[Example 276]", "IC50": 52}, {"compound": "CS(=O)(=O)N1CCC(CNC(=O)[C@@H]2CC[C@@]3(S(=O)(=O)c4ccc(F)cc4)c4ccc(C(F)(C(F)(F)F)C(F)(F)F)cc4CC[C@@H]23)C1", "note": "(stereo partly shown) [Example 277]", "IC50": 6}, {"compound": "CS(=O)(=O)N1CCC(CNC(=O)[C@@H]2CC[C@@]3(S(=O)(=O)c4ccc(F)cc4)c4ccc(C(F)(C(F)(F)F)C(F)(F)F)cc4CC[C@@H]23)C1", "note": "(stereo partly shown) [Example 278]", "IC50": 7}, {"compound": "CS(=O)(=O)N1CC(O)(CNC(=O)[C@@H]2CC[C@@]3(S(=O)(=O)c4ccc(F)cc4)c4ccc(C(F)(C(F)(F)F)C(F)(F)F)cc4CC[C@@H]23)C1", "note": "[Example 279]", "IC50": 19}, {"compound": "NS(=O)(=O)N[C@H]1C[C@@H](NC(=O)[C@@H]2CC[C@@]3(S(=O)(=O)c4ccc(F)cc4)c4ccc(C(F)(C(F)(F)F)C(F)(F)F)cc4CC[C@@H]23)C1", "note": "[Example 280, (3R,3aS,9bS)-9b-((4-fluorophenyl)sulfonyl)-7-(perfluoropropan-2-yl)-N-((1s,3S)-3-(sulfamoylamino)cyclobutyl)-2,3,3a,4,5,9b-hexahydro-1H-cyclopenta[a]naphthalene-3-carboxamide]", "IC50": 22}, {"compound": "NS(=O)(=O)N[C@H]1C[C@@H](NC(=O)[C@@H]2CC[C@@]3(S(=O)(=O)c4ccc(F)cc4)c4ccc(C(F)(C(F)(F)F)C(F)(F)F)cc4CC[C@@H]23)C1", "note": "[Example 281]", "IC50": 58}, {"compound": "O=C(N[C@@H]1CC[C@@]2(S(=O)(=O)c3ccc(F)cc3)c3ccc(C(F)(C(F)(F)F)C(F)(F)F)cc3CC[C@@H]12)C1(F)CCS(=O)(=O)CC1", "note": "[Example 298, 4-fluoro-N-((3R,3aS,9bS)-9b-((4-fluorophenyl)sulfonyl)-7-(perfluoropropan-2-yl)-2,3,3a,4,5,9b-hexahydro-1H-cyclopenta[a]naphthalen-3-yl)tetrahydro-2H-thiopyran-4-carboxamide 1,1-dioxide]", "IC50": 7}]}]}
